Results as given in PubChem BioAssay AID686931 (Broad Institute, 2013).
Several values for one entry are separate records, joined by “and”; a condition that tells them apart may be missing. Identical values can stand only once. Activity calls are given as the source filed them. The rule behind the calls is not given here.

Assays:
[1] = Confirmatory dose response, V. cholerae DH231 delta cqsS, luciferase light activation (AID 686931); settings: V. cholerae DH231 (delta cqsS) luciferase light production
[2] = test system: V. cholerae DH231 (delta cqsS) luciferase light production; experiment: as above

Row | Compound | activation ([1]; at 100 µM (top of the series)) | AC40 [2] | further results
1 | O=C(Nc1nnc(-c2ccccc2Cl)o1)C1CCCCC1 | 0.072% (inactive) | – | –
2 | O=C(Nc1nnc(-c2cccc(Cl)c2)o1)C1CCCCC1 | – | – | activation ([1]; at 80 µM (top of the series)): 1.82% (inactive)
3 | O=C(Nc1nnc(-c2ccc3c(c2)OCCO3)o1)C1CC1 | -0.326% (inactive) | – | –
4 | O=C(Nc1nnc(-c2ccc3c(c2)OCCO3)o1)C1CCCCCC1 | – | 10.5 µM | –
5 | Cc1ccc2cc3c(NC(=O)c4ccccn4)nn(C)c3nc2c1 | 1.04% (inactive) | – | –
6 | O=C(Cc1ccc(-c2ccccc2)cc1)NC1CCC1 | -0.546% (inactive) | – | –
7 | Cn1nc(NC(=O)c2ccco2)c2cc3ccccc3nc21 | – | 4.18 µM | –
8 | Cn1nc(NC(=O)c2ccco2)c2cccnc21 | – | 20.4 µM | –
9 | Cc1cc2nc3c(cc2cc1F)c(NC(=O)c1ccco1)nn3C | – | 21.7 µM | –
10 | O=C(Nc1nnc(-c2ccc3c(c2)OCCO3)o1)C1CCCC1 | – | – | activation ([1]; at 80 µM (top of the series)): 8.16% (inactive)
11 | CCCCCCCCCC(=O)C(O)CC (configuration not stated) | – | – | activation ([1]; at 50 µM (top of the series)): -0.408% (inactive)
12 | COc1cccc(-c2nnc(NC(=O)C3CCCCC3)o2)c1 | 3.05% (inactive) | – | –
13 | O=S(=O)(Nc1nnc(-c2ccc3c(c2)OCCO3)o1)c1ccc(Cl)cc1 | -1.11% (inactive) | – | –
14 | Cc1cc(F)c2cc3c(NC(=O)c4ccco4)nn(C)c3nc2c1 | – | 76.2 µM | –
15 | COc1ccc(S(=O)(=O)Nc2nnc(-c3ccc4c(c3)OCCO4)o2)cc1 | -1.4% (inactive) | – | –
16 | O=C(Nc1nnc(-c2cccnc2)o1)C1CCC1 | 0.588% (inactive) | – | –
17 | CCn1nnnc1NCc1ccc(C(C)C)cc1 | -0.577% (inactive) | – | –
18 | Cn1nc(NC(=O)c2ccco2)c2cc3ccc(C(C)(C)C)cc3nc21 | -1.04% (inactive) | – | –
19 | CCc1ccc2cc3c(NC(=O)c4ccco4)nn(C)c3nc2c1 | – | 31 µM | –
20 | O=C(Nc1nnc(-c2cccnc2)o1)C1CCCCC1 | – | 88.1 µM | –
21 | O=C(Nc1nnc(-c2ccc3c(c2)OCCO3)o1)C1CCC1 | 0.218% (inactive) | – | –
22 | Cc1ccc2cc3c(NC(=O)C4CCCC4)nn(C)c3nc2c1 | – | 37.9 µM | –
23 | O=C(Nc1nnc(-c2ccc(Cl)cc2)o1)C1CCCCC1 | – | – | activation ([1]; at 80 µM (top of the series)): -1.2% (inactive)
24 | CC(C)(C)OC(=O)N1CCC(C(=O)Nc2nnc(-c3ccc4c(c3)OCCO4)o2)CC1 | 0.619% (inactive) | – | –
25 | O=C(CC1CCCCC1)Nc1nnc(-c2ccc3c(c2)CCCC3)o1 | – | – | activation ([1]; at 35 µM (top of the series)): 0.843% (inactive)
26 | Cc1ccc2cc3c(NC(=O)Cc4ccco4)nn(C)c3nc2c1 | 13.6% (inactive) | – | –

Row | Compound | activation ([1]; at 100 µM (top of the series)) | AC40 [2] | further results
27 | c1ccc(CNc2nnc(-c3ccc4c(c3)OCCO4)o2)cc1 | -0.54% (inactive) | – | –
28 | O=C(Nc1nnc(-c2ccc3c(c2)OCCO3)o1)C1CCCCC1 | – | 4.54 µM and 1.67 µM | –
29 | O=C(Nc1nnc(-c2ccc3c(c2)OCCO3)o1)C(F)(F)c1ccccc1 | -1.19% (inactive) | – | –
30 | COc1ccc(-c2nnc(NC(C)=O)o2)cc1 | 1.64% (inactive) | – | –
31 | CN(C)/C=N/c1nnc(-c2ccc3c(c2)OCCO3)o1 | -0.521% (inactive) | – | –
32 | Cn1nc(NC(=O)c2ccco2)c2ccccc21 | – | 78.1 µM | –
33 | Cc1ccc2cc3c(NC(=O)c4ccc(C)o4)nn(C)c3nc2c1 | 0.174% (inactive) | – | –
34 | Cc1cc(F)cc2nc3c(cc12)c(NC(=O)c1ccco1)nn3C | – | 70.7 µM | –
35 | O=C(CC1CCCCC1)Nc1nnc(-c2cccnc2)o1 | – | – | activation ([1]; at 80 µM (top of the series)): -0.959% (inactive)
36 | Cc1ccc2cc3c(NC(=O)c4cccs4)nn(C)c3nc2c1 | – | 75.3 µM | –
37 | COc1ccc2cc3c(NC(=O)c4ccco4)nn(C)c3nc2c1 | – | 1.83 µM | –
38 | COc1ccc(-c2nnc(NC(=O)C3CCCCC3)o2)cc1 | – | > 100 µM (inactive) | –
39 | Cn1ccc(NC(=O)c2ccco2)n1 | 0.502% (inactive) | – | –
40 | CC(C)c1ccc2cc3c(NC(=O)c4ccco4)nn(C)c3nc2c1 | 2.47% (inactive) | – | –
41 | CN1CCC(C(=O)Nc2nnc(-c3ccc4c(c3)OCCO4)o2)CC1 | 0.079% (inactive) | – | –
42 | O=C(Nc1nnc(C2CCCC2)o1)C1CCCCC1 | -0.731% (inactive) | – | –
43 | O=C(Nc1nnc(-c2ccncc2)o1)C1CCC1 | 0.692% (inactive) | – | –
44 | C(=N\c1nnc(-c2ccc3c(c2)OCCO3)o1)/c1ccccc1 | 0.573% (inactive) | – | –
45 | O=C(Nc1nnc(-c2ccc3c(c2)CCCC3)o1)C1CCC1 | – | – | activation ([1]; at 80 µM (top of the series)): -0.346% (inactive)
46 | Cc1ccc2cc3c(NC(=O)c4ccoc4)nn(C)c3nc2c1 | – | – | activation ([1]; at 80 µM (top of the series)): 10.6% (inactive)
47 | CCC(C)(C)C(=O)Nc1nnc(-c2ccc3c(c2)OCCO3)o1 | – | – | activation ([1]; at 80 µM (top of the series)): 0.359% (inactive)
48 | COc1ccccc1-c1nnc(NC(=O)C2CCCCC2)o1 | – | > 100 µM (inactive) | –
49 | Cc1cc2cc3c(NC(=O)c4ccco4)nn(C)c3nc2cc1C | – | 22.2 µM | –
50 | CCCCCCCCCC(=O)[C@H](O)CC (racemic) | -0.642% (inactive) | – | –
51 | Cc1ccc2cc3c(NC(=O)c4cc5ccccc5o4)nn(C)c3nc2c1 | 0.496% (inactive) | – | –
52 | Cc1ccc2cc3c(NC(=O)c4ccco4)nn(C)c3nc2c1 | – | 6.52 µM and 15.8 µM | –
